The values below come from patent US20160310448A1, “Adamantane or Pinene Derivatives for Use in the Treatment of Chlamydiales Infections” (Commissariat a l'Energie Atomique et aux Energies …, priority 2015, published 2016).

Common to all, as to assay type: cell-based
Test [1] deals with Chlamydia trachomatis (Ctr) strain L2/434/Bu. Kind of test: microbe, parasite or virus in culture. The note with it: for inhibition at 25 µM / inhibition at 75 µM: Chlamydia trachomatis, HeLa 229, progeny infection, HeLa229, MOI1, versus solvent-treated cells; for inhibition at 25 µM: read-out: Cellular protection at 25 μM; for inhibition at 75 µM: read-out: Cellular protection at 75 μM; for protection against Ctr progeny infection at 75 μM (in words) / protection against Ctr progeny infection at 25 μM (in words): HeLa229; for protection against Ctr progeny infection at 75 μM (in words): FIG. 7 and Table 1; for protection against Ctr progeny infection at 25 μM (in words): Table 1. How it is done:
HeLa229 (ATCC CCL-2.1). Cells were grown in RPMI1640 medium (Glutamax, 10% FBS, w/o HEPES) (Invitrogen).
(§1) Chlamydia trachomatis (Ctr). Laboratory-adapted strain L2/434/Bu (ATCC VR902B) was used in assays. Full biological and genetic information is available for this strain including complete genome sequence and defined proteome. This strain has a relatively low particle to infectivity ratio, perform efficient cell infection and has a higher viability than standard genital tract isolates with faster developmental cycle. Culture conditions have been described in (Wang Y., Kahane S., Cutcliffe L. T., Skilton R. J., Lambden P. R., Clarke I. N. Development of a transformation system for Chlamydia trachomatis: Restoration of glycogen biosynthesis by acquisition of a plasmid shuttle vector. PLoS Pathogen, 2011, 7(9):e1002258. doi: 10.1371/journal.ppat.1002258).
Compound application during Chlamydia trachomatis infection. HeLa229 cells were pretreated with compound #20 and its derivatives in concentrations of 25 μM and 75 μM for 1 hour until Chlamydia trachomatis (MOI1) were added to the cells. Compounds were present during infection. To obtain progeny infection, compound treated cells were lysed 24 h post infection (hpi) and lysate was used to infect fresh HeLa 229 cells.
Infected cells of progeny infection were fixed with 4% Paraformaldehyde 48 hpi. Cells were stained for DAPI and Chlamydia trachomatis were detected by GFP-signal. Images are representative of n=2 independent experiments. Quantification of infected cells by Chlamydia trachomatis was realized from microscopy images with Image J software (FIG. 7) and cellular protection by compounds at 25 μM and 75 μM was then determined (Table 1) by comparison with solvent-treated cells (control) with the following equation: […]

For test [2], the system named is Simkania negevensis (Sn) strain Z. The test is described as follows: Sn infectivity assays (primary and progeny infection) in HeLa229 cells. How it is done:
Simkania negevensis (Sn) strain Z (ATCC VR-1471) was prepared as described previously (Mehlitz A, Karunakaran K, Herweg J A, Krohne G, van de Linde S, Rieck E, Sauer M, Rudel T. The chlamydial organism Sn forms ER vacuole contact sites and inhibits ER-stress. Cell Microbiol 2014; 16(8):1224-1243).
Briefly, HeLa229 cells were grown to 50-70% confluence, were inoculated with Sn in RPMI1640 with 5% FBS, for 6 h at 35° C. in a humidified incubator at 5% CO2. Medium was replaced by infection medium (RPMI1640, Glutamax, 5% FBS, w/o HEPES) and growth was allowed for 3 days. Cells were mechanically detached and bacteria were released using ˜2-5 mm glass beads (Carl Roth). Low speed supernatant (600×g, 4° C. and 5 min) was subjected to high-speed centrifugation (20,000×g, 4° C. and 30 min) to pellet bacteria. Bacteria were washed twice with 5 ml SPG (250 mM sucrose, 50 mM sodium phosphate, 5 mM glutamate, pH 7.4), aliquoted and stored at '80° C. in SPG.
40,000 HeLa cells were seeded in 12-well cluster plates, inhibitor-treated and infected as indicated in the respective experiment.
For infectivity assays cells were either fixed and stained at indicated time points (FIGS. 2,4; inclusion formation/primary infection) or bacteria were released via one freeze thaw cycle (−70° C./37° C.) followed by mechanical release through pipetting and transfer to fresh HeLa229 cells (1:25-1:50, progeny/infectivity). Cells were centrifuged for 1 h at 35° C. and medium exchanged to infection medium. Progeny was fixed at day 3 post infection and processed for staining (FIG. 3) or harvested for immunoblotting (FIG. 1). Infectivity assays were imaged on an automated fluorescence microscope Leica DMIR (FIG. 4). Numbers and average sizes of the SCV as well as host cell numbers were determined via GroEL and DAPI staining and images were analysed and quantified using FIJI (ImageJ) and Excel (Microsoft).
In this progeny assay, bacteria are first grown in Hela299 cells treated with inhibitors (compound 20 at a concentration of 50 and 75 μM) and the infectious particles from this primary infection are applied to fresh cells in the absence of inhibitor to measure the bacterial load (GroEL immunoblot) and inclusion formation (immunofluorescence microscopy).

The subject of test [3] is Chlamydia trachomatis (Ctr) strain L2/434/Bu. The test is described as follows: Chlamydia trachomatis (Ctr) infectivity assay, HSP60 immunoblot of primary and progeny infection in HeLa229 cells.
From the text: as §1
Compound application during Ctr infection. HeLa229 cells were pretreated with compound 20 in concentrations of 25, 50 and 75 μM for 30 min until Ctr (MOI1) were added to the cells. Compound 20 was present during infection.
Cells with primary infection were lysed 24 h post infection (hpi). To obtain progeny infection compound treated cells were lysed 48 hpi and lysate was used to infect fresh HeLa229 cells. Progeny infection was lysed 24 hpi and analyzed together with primary infection samples by immunoblot. Chlamydial growth was detected with antibodies against chlamydial HSP60 protein and Actin was used as loading control (FIG. 6).
A general note: In western blotting, separated proteins are transferred to a membrane and probed.

“Also recorded” adds a separate entry of the source.

`COc1ccc(Br)cc1CNC12CC3CC(CC(C3)C1)C2` [Compound 20, (3S,5S,7S)-N-(5-bromo-2-methoxybenzyl)adamantan-1-amine]: in test [1], the inhibition at 25 µM was found to be 19.9% and the inhibition at 75 µM was found to be 75.7%. Moreover, the “effect on Sn progeny infection” value in test [2] (HeLa cells, 50 and 75 μM, GroEL immunoblot, relative inclusion number) was “inhibitor effect; also recorded: inhibits”. Also, the “effect on Sn primary infection” value in test [2] (HeLa cells, 50 and 75 μM, relative inclusion size, fluorescence microscopy) is listed as “inhibitor effect; also recorded: inhibits”. Moreover, the “concentration of maximal inhibition of Sn replication” value in test [2] (HeLa cells, FIGS. 1, 2, 3 and 4) was determined as 75 µM. Further, the “subcellular structure of Sn inclusions by transmission electron microscopy” value in test [2] (infected HeLa cells, versus DMSO-treated control) was “dramatically smaller and less sub-vacuoles and just few bacteria; also recorded: the number of Sn inclusions is reduced and the vacuole size is much reduced”. Also, the “effect on Ctr progeny infection at 50 μM” value in test [3] (50 μM, HSP60 immunoblot) is recorded as “strongly reduced amounts of Ctr in the progeny”. Besides, in test [3] (75 μM, HSP60 immunoblot), the “effect on Ctr progeny infection at 75 μM” value is “totally blocked progeny infection”. For the same compound, in test [3] (25, 50 and 75 μM, HSP60 immunoblot 24 hpi), the “effect on chlamydial development (primary Ctr infection)” value was “slight inhibitory effect”.

Consider `COc1ccc(Br)cc1CNC12CC3CC(C)(CC(C)(C3)C1)C2` [RN-2-103, (1R,3R,5S,7R)-N-(5-bromo-2-methoxybenzyl)-3,5-dimethyladamantan-1-amine], for which, in test [1], the “protection against Ctr progeny infection at 75 μM (in words)” value (shortened to “protection … at 75 μM (in words)”) is reported as “full protection”, the inhibition at 25 µM is 66.9% and the inhibition at 75 µM was 100%.

In the case of `COc1ccc(Br)cc1CN[C@H]1C[C@H]2C[C@@H]([C@@H]1C)C2(C)C` [VP332, (1S,2S,3S,5R)-N-(5-bromo-2-methoxybenzyl)-2,6,6-trimethylbicyclo[3.1.1]heptan-3-amine], in test [1], the “protection against Ctr progeny infection at 25 μM (in words)” value (“protection … at 25 μM (in words)” below) is “full protection”, the “protection … at 75 μM (in words)” value was “full protection”, the inhibition at 25 µM is 100% and the inhibition at 75 µM was determined as 100%.

As for `COc1ccc(I)cc1CN[C@H]1C[C@H]2C[C@@H]([C@@H]1C)C2(C)C` [VP386, (1S,2S,3S,5R)-N-(5-iodo-2-methoxybenzyl)-2,6,6-trimethylbicyclo[3.1.1]heptan-3-amine], in test [1], the “protection … at 25 μM (in words)” value is “full protection”, the “protection … at 75 μM (in words)” value was “full protection”, the inhibition at 25 µM turned out to be 100% and the inhibition at 75 µM was found to be 100%.

With `C[C@@H]1[C@@H](NCc2ccc(I)cc2)C[C@H]2C[C@@H]1C2(C)C` [VP390, (1S,2S,3S,5R)-N-(4-iodobenzyl)-2,6,6-trimethylbicyclo[3.1.1]heptan-3-amine], in test [1], the “protection … at 75 μM (in words)” value is given as “full protection”, the inhibition at 25 µM was determined as 91.8% and the inhibition at 75 µM turned out to be 100%.

As to `O=C(Nc1ccc(S(=O)(=O)Nc2nccs2)cc1)C12CC3CC(CC(C3)C1)C2` [m3, (3R,5R,7R)-N-(4-(N-(thiazol-2-yl)sulfamoyl)phenyl)adamantane-1-carboxamide], in test [1], the inhibition at 25 µM was 46.9% and the inhibition at 75 µM was determined as 87.8%.

As to `O=C(N/N=C/c1cccc([N+](=O)[O-])c1)NC12CC3CC(CC(C3)C1)C2` [m4, N-((3S,5S,7S)-adamantan-1-yl)-2-((E)-3-nitrobenzylidene)hydrazine-1-carboxamide], in test [1], the inhibition at 25 µM was found to be 22.8% and the inhibition at 75 µM was 81.6%.

For `O=C(CC12CC3CC(CC(C3)C1)C2)N/N=C/c1ccc([N+](=O)[O-])o1` [m9, 2-((3R,5R,7R)-adamantan-1-yl)-N′-((E)-(5-nitrofuran-2-yl)methylene)acetohydrazide], in test [1], the “protection … at 25 μM (in words)” value is recorded as “full protection”, the “protection … at 75 μM (in words)” value is recorded as “full protection”, the inhibition at 25 µM turned out to be 100% and the inhibition at 75 µM was 100%.
